Measurements taken from paper PMC9033141, “Beta and Gamma Amino Acid-Substituted Benzenesulfonamides as Inhibitors of Human Carbonic Anhydrases” (Pharmaceuticals, 2022).
Where “and” joins values, the source holds several entries; their conditions need not be identical. Identical values can stand only once. Like-named read-outs stand apart in the source and are kept apart here.

How the values were obtained:
CAXIII = CAXIII (Homo sapiens, UniProt Q8N1Q1); test: biochemical; settings: FTSA;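 further: recombinant human CAXIII melting temperature tracked by ANS fluorescence in thermal shift assay, Tm fitted against ligand concentration, intrinsic value corrects Kd for deprotonated sulfonamide and Zn-bound water fractions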
CAXII = molecular target: T1, CAXII (Homo sapiens, UniProt O43570); test: biochemical; assay type: binding; settings: FTSA
T1 construct: made in house; host or cells: E. coli
Method: (§1) Human CA isozymes were expressed in E. coli (CAI, II, III, IV, VA, VB, VII, XII, XIII, XIV) or mammalian cells (CAVI and CAIX), chromatographically purified following the published protocols [47], and stored at −80 °C. The protein concentration was determined by UV absorption at 280 nm using Beer–Lambert law.
(§2) The QIAGEN Rotor-Gene Q was used to carry out the experiments, with a blue channel used for excitation (365 nm) and detection (460 nm). FTSA in this case relies on an extrinsic probe, 8-anilino-1-naphthalenesulfonate (ANS), to detect the fluorescence increase during protein denaturation, from which protein melting temperature (Tm) can be determined. […] The observed affinity of ligands for CAs was determined by plotting the Tm as a function of ligand concentration and then fitting a curve as described previously [48]. […] Samples were heated from 25 °C to 99 °C at the speed of 1 °C/min.
(§3) The intrinsic thermodynamic parameters were calculated as described in [40]. The intrinsic reaction of inhibitor binding to CA is shown in Equation (1).
(§4) When calculating Kd_int values, these protein and ligand fractions from Equation (1) have to be accounted for (Equations (2) and (3)). The intrinsic dissociation constant is calculated by multiplying Kd_obs value by the corresponding fractions of protein and ligand (Equation (4)). (2) fRSO2NH^−=10^pH−pKa_RSO2NH2/1+10^pH−pKa_RSO2NH2 (3) fCAZnH2O=1−10^pH−pKa_CAZnH2O/1+10^pH−pKa_CAZnH2O (4) Kd_int=Kd_obs×fRSO2NH^−×fCAZnH2O (5) ΔGint0=RTlnKd_int
(§5) The intrinsic standard Gibbs energy changes upon binding were calculated using Equation (5). Here, R—universal ideal gas constant (8.3144 J/mol·K), T—absolute temperature (310.15 K).

CAI = molecular target: T2, CAI (Homo sapiens, UniProt P00915); test: biochemical; assay type: binding; settings: FTSA
T2 construct: made in house; host or cells: E. coli
Method: as §1, §2, §3, §4, §5

CAII = molecular target: T3, CAII (Homo sapiens, UniProt P00918); test: biochemical; assay type: binding; settings: FTSA;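 further: recombinant human CAII, thermal shift with ANS dye fluorescence, Kd_obs from fitting melting temperature versus ligand concentration, intrinsic values corrected for deprotonated sulfonamide and Zn-bound water fractions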
T3 construct: made in house; host or cells: E. coli
Method: as §1, §2, §3, §4, §5

CAIX = molecular target: T4, CAIX (Homo sapiens, UniProt Q16790); test: biochemical; assay type: binding; settings: FTSA
T4 construct: made in house
Method: as §1, §2, §3, §4, §5

[1] = Observed Dissociation Constant (Kd_obs), pH 7.0, 37 °C
[2] = pH 7.0, 37 °C, read-out: Observed Dissociation Constant (Kd_obs), CAXII
[3] = pH 7.0, 37 °C, read-out: Observed Dissociation Constant (Kd_obs), CAI
[4] = pH 7.0, 37 °C, read-out: Observed Dissociation Constant (Kd_obs), CAII
[5] = pH 7.0, 37 °C, read-out: Observed Dissociation Constant (Kd_obs), CAIX
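Wherever Observed Dissociation Constant (Kd obs), CAXII is given: recombinant CAXII made in E. coli, ANS-fluorescence thermal shift with affinity fitted from Tm versus ligand concentration, intrinsic energy from Kd_obs corrected for deprotonated sulfonamide and Zn-water fractions.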

T1 sequence (O43570 25-354): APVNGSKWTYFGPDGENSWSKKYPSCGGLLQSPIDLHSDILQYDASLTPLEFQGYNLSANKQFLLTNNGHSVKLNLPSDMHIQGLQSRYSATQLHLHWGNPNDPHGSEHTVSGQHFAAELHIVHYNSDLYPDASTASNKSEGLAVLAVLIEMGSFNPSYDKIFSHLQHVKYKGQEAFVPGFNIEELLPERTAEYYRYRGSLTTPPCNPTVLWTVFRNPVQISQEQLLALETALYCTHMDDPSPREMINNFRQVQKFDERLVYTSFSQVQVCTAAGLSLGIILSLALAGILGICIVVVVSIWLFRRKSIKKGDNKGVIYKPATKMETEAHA
Sequence of CAXIII (Q8N1Q1 whole entry): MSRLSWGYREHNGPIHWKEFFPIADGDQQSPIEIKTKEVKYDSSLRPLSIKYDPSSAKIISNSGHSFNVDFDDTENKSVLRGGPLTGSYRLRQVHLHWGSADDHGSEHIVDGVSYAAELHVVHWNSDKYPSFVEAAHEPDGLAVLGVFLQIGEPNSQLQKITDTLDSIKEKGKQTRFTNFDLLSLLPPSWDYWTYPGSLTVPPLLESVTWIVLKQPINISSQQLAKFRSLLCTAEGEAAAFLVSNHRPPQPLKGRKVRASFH
T2 sequence (P00915 whole entry): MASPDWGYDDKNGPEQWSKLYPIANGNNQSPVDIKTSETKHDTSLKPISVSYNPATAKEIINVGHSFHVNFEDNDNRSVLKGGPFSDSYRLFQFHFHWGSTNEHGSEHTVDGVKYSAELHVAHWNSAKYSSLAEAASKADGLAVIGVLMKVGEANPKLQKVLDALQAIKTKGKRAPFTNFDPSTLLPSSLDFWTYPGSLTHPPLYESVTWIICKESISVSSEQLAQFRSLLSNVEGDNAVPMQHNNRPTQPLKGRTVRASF

Kd (CAXIII; [1])	Kd (CAXII; [2])	Kd (CAI; [3])	melting point	Kd (CAII; [4])	Kd (CAIX; [5])	Kd (CAIX; Observed Dissociation Constant (Kd_obs), CAIX, pH 7.0, 37 °C)	Kd (CAXIII; Kd_obs)	Kd (CAXII; read-out: Kd_obs, CAXII)	Kd (CAI; read-out: Kd_obs, CAI)	Kd (CAII; read-out: Kd_obs, CAII)	Kd (CAIX; read-out: Kd_obs, CAIX)	SMILES
20 µM	18 µM	18 µM	117 to 118 °C	40 µM	2 µM	–	–	–	–	–	–	CCC(C)=NN1C(=O)CC(CNc2ccc(S(N)(=O)=O)cc2)C1=O (centres unmarked) [Compound 4a, 4-(((1-(Butan-2-ylideneamino)-2,5-dioxopyrrolidin-3-yl)methyl)amino)benzenesulfonamide]
6.7 µM	50 µM	13 µM	197 to 198 °C	3.3 µM	1 µM	–	–	–	–	–	–	NS(=O)(=O)c1ccc(NCC(CC(=O)NN=Cc2ccccc2[N+](=O)[O-])C(=O)NN=Cc2ccccc2[N+](=O)[O-])cc1 (centres unmarked) [Compound 15a, 4-((2-(2-(2-Nitrobenzylidene)hydrazine-1-carbonyl)-4-(2-(2-nitrobenzylidene)hydrazineyl)-4-oxobutyl)amino)benzenesulfonamide]
6.7 µM	14 µM	10 µM	–	1.8 µM	0.67 µM	–	–	–	–	–	–	CC(C)=NNC(=O)CC(CNc1ccc(S(N)(=O)=O)cc1Cl)C(=O)NN=C(C)C (centres unmarked) [Compound 3b, 3-Chloro-4-((4-oxo-2-(2-(propan-2-ylidene)hydrazine-1-carbonyl)-4-(2-(propan-2-ylidene)hydrazineyl)butyl)amino)benzenesulfonamide]
1.5 µM	57 µM	6.7 µM	211 to 212 °C	1.1 µM	0.67 µM	–	–	–	–	–	–	NS(=O)(=O)c1ccc(NCC(CC(=O)NN=Cc2ccc(Cl)cc2)C(=O)NN=Cc2ccc(Cl)cc2)c(Cl)c1 (centres unmarked) [Compound 12b, 3-Chloro-4-((2-(2-(4-chlorobenzylidene)hydrazine-1-carbonyl)-4-(2-(4-chlorobenzylidene)hydrazineyl)-4-oxobutyl)amino)benzenesulfonamide]
0.34 µM	23 µM	2.6 µM	207 to 208 °C	0.39 µM	–	0.33 µM	–	–	–	–	–	NS(=O)(=O)c1ccc(NCC(CC(=O)NN=Cc2ccc(F)cc2)C(=O)NN=Cc2ccc(F)cc2)c(Cl)c1 (centres unmarked) [Compound 13b, 3-Chloro-4-((2-(2-(4-fluorobenzylidene)hydrazine-1-carbonyl)-4-(2-(4-fluorobenzylidene)hydrazineyl)-4-oxobutyl)amino)benzenesulfonamide]
19 µM	3.3 µM	43 µM	170 to 171 °C	6.7 µM	0.91 µM	–	–	–	–	–	–	Cn1c(CC(CNc2ccc(S(N)(=O)=O)cc2)c2n[nH]c(=S)n2C)n[nH]c1=S (centres unmarked) [Compound 24a, 4-((2,3-bis(4-Methyl-5-thioxo-4,5-dihydro-1H-1,2,4-triazol-3-yl)propyl)amino)benzenesulfonamide]
1 µM	130 µM	3.3 µM	199 to 200 °C	0.5 µM	0.13 µM	–	–	–	–	–	–	NS(=O)(=O)c1ccc(NCC(CC(=O)NN=Cc2cccc([N+](=O)[O-])c2)C(=O)NN=Cc2cccc([N+](=O)[O-])c2)c(Cl)c1 (centres unmarked) [Compound 16b, 3-Chloro-4-((2-(2-(3-nitrobenzylidene)hydrazine-1-carbonyl)-4-(2-(3-nitrobenzylidene)hydrazineyl)-4-oxobutyl)amino)benzenesulfonamide]
14 µM	50 µM	20 µM	218 to 219 °C	4 µM	1.4 µM	–	–	–	–	–	–	NS(=O)(=O)c1ccc(NCC(CC(=O)NN=Cc2cccc([N+](=O)[O-])c2)C(=O)NN=Cc2cccc([N+](=O)[O-])c2)cc1 (centres unmarked) [Compound 16a, 4-((2-(2-(3-Nitrobenzylidene)hydrazine-1-carbonyl)-4-(2-(3-nitrobenzylidene)hydrazineyl)-4-oxobutyl)amino)benzenesulfonamide]
25 µM	4 µM	100 µM	258 to 259 °C	3.3 µM	0.1 µM	–	–	–	–	–	–	NS(=O)(=O)c1ccc(NCC(Cc2n[nH]c(=S)n2-c2ccccc2)c2n[nH]c(=S)n2-c2ccccc2)cc1 (centres unmarked) [Compound 25a, 4-((2,3-bis(4-Phenyl-5-thioxo-4,5-dihydro-1H-1,2,4-triazol-3-yl)propyl)amino)benzenesulfonamide]
10 µM	2.2 µM	4 µM	136 to 137 °C	2 µM	0.13 µM	–	–	–	–	–	–	NS(=O)(=O)c1ccc(NCC(CC(=O)NNC(=S)Nc2ccccc2)C(=O)NNC(=S)Nc2ccccc2)cc1 (centres unmarked) [Compound 23a, 2,2′-(2-(((4-Sulfamoylphenyl)amino)methyl)succinyl)bis(N-phenylhydrazine-1-carbothioamide)]
1.7 µM	50 µM	17 µM	174 to 175 °C	2.5 µM	0.5 µM	–	–	–	–	–	–	NS(=O)(=O)c1ccc(NCC(CC(=O)NN=Cc2ccccc2Cl)C(=O)NN=Cc2ccccc2Cl)cc1 (centres unmarked) [Compound 10a, 4-((2-(2-(2-Chlorobenzylidene)hydrazine-1-carbonyl)-4-(2-(2-chlorobenzylidene)hydrazineyl)-4-oxobutyl)amino)benzenesulfonamide]
10 µM	20 µM	6.7 µM	177 to 178 °C	2 µM	0.5 µM	–	–	–	–	–	–	NS(=O)(=O)c1ccc(NCC(CC(=O)NN=Cc2ccccc2O)C(=O)NN=Cc2ccccc2O)cc1 (centres unmarked) [Compound 7a, 4-((2-(2-(2-Hydroxybenzylidene)hydrazine-1-carbonyl)-4-(2-(2-hydroxybenzylidene)hydrazineyl)-4-oxobutyl)amino)benzenesulfonamide]
100 µM	110 µM	170 µM	–	13 µM	6.7 µM	–	–	–	–	–	–	CC(C)=NNC(=O)CC(CNc1ccc(S(N)(=O)=O)cc1)C(=O)NN=C(C)C (centres unmarked) [Compound 3a, 4-((4-Oxo-2-(2-(propan-2-ylidene)hydrazine-1-carbonyl)-4-(2-(propan-2-ylidene)hydrazineyl)butyl)amino)benzenesulfonamide]
5 µM	0.5 µM	8.3 µM	162 to 163 °C	1.3 µM	0.59 µM	–	–	–	–	–	–	CC(=NNC(=O)CC(CNc1ccc(S(N)(=O)=O)cc1)C(=O)NN=C(C)c1ccccc1)c1ccccc1 (centres unmarked) [Compound 5a, 4-((4-Oxo-2-(2-(1-phenylethylidene)hydrazine-1-carbonyl)-4-(2-(1-phenylethylidene)hydrazineyl)butyl)amino)benzenesulfonamide]
0.33 µM	33 µM	2.5 µM	175 to 176 °C	0.33 µM	0.13 µM	–	–	–	–	–	–	NS(=O)(=O)c1ccc(NCC(CC(=O)NN=Cc2cccc(Cl)c2)C(=O)NN=Cc2cccc(Cl)c2)c(Cl)c1 (centres unmarked) [Compound 11b, 3-Chloro-4-((2-(2-(3-chlorobenzylidene)hydrazine-1-carbonyl)-4-(2-(3-chlorobenzylidene)hydrazineyl)-4-oxobutyl)amino)benzenesulfonamide]
6.7 µM	14 µM	6.7 µM	–	1.3 µM	0.83 µM	–	0.83 to 130 µM	0.83 to 130 µM	0.83 to 130 µM	0.83 to 130 µM	0.83 to 130 µM and 0.83 µM	NNC(=O)CC(CNc1ccc(S(N)(=O)=O)cc1Cl)C(=O)NN (centres unmarked) [Compound 2b, 3-Chloro-4-((2-(hydrazinecarbonyl)-4-hydrazineyl-4-oxobutyl)amino)benzenesulfonamide]
